Data: US7767238B2, “Beverage composition and method of preventing degradation of vitamins in beverages” (PepsiCo, Inc., priority 2005, dated 2010)

Legend:
[1] = Vitamin stabilization ability, observed rank order; settings: more hydroxyl groups on the aryl rings enhance vitamin stabilization
[2] = Vitamin A Palmitate remaining in non-carbonated pink lemonade 5% juice, PET bottle, store fluorescent light (Example 3); format: physicochemical; settings: 66 ppm stabilizer, start 3500 IU, one week fluorescent light, Light control 737, Dark control 3215
Description: (§1) A clear lemon-lime (L/L) carbonated soft drink (CSD) with Vitamin C and ethylene-diaminetetraacetic acid (EDTA) was prepared. Seven samples of the carbonated soft drink were prepared each containing 2500 IU of Vitamin A Palmitate which can be obtained from Roche and the amount of rutin, SanMelin or blueberry leaves extract indicated in Table 8. All samples were packaged in clear glass containers. The Dark and Light samples were each free of rutin, SanMelin or blueberry leaves extract. The Dark sample was shielded from light. All the other samples, including the Light sample were exposed to typical store fluorescent light. The values in the table were all measured at one week.
A non-carbonated pink lemonade beverage composed of 5% juice was prepared. Seven samples like the ones in Examples 1 and 2 were prepared except that the starting amount of Vitamin A Palmitate was 3500 IU and the samples were packaged in PET containers.

[3] = Vitamin A Palmitate remaining in clear lemon-lime CSD with Vitamin C and EDTA, clear glass, store fluorescent light (Example 2); format: physicochemical; settings: 100 ppm stabilizer, start 2000 IU, one week fluorescent light, Light control 548, Dark control 1870
Description: as §1
Example 2 differed from Example 1 in that the starting amount of Vitamin A Palmitate was 2000 IU.

[4] = Vitamin A Palmitate remaining in clear lemon-lime CSD with Vitamin C and EDTA, clear glass, store fluorescent light (Example 1); format: physicochemical; settings: start 2500 IU, one week fluorescent light, Light control 576, Dark control 2300
Description: as §1

[5] = Vitamin A remaining in fruit juice in 20 oz. PET bottle under store fluorescent light; format: physicochemical; settings: freshly prepared 3500 IU fruit juice, typical store fluorescent light, one week, no stabilizer

Question: With `O=C(O)C=Cc1ccccc1` [cinnamic acid] as the compound, how does the “vitamin stabilization ability (rank order)” value (“vitamin stabilization ability” below) [1] read?
Answer: caffeic acid (2 hydroxyl groups)>ferulic acid>coumaric acid>cinnamic acid

Question: For `C[C@@H]1O[C@@H](OC[C@H]2O[C@@H](Oc3c(-c4ccc(O)c(O)c4)oc4cc(O)cc(O)c4c3=O)[C@H](O)[C@@H](O)[C@@H]2O)[C@H](O)[C@H](O)[C@H]1O` [Rutin, rutin], which “IU of Vitamin A Palmitate” value [2] is on record?
Answer: 1824 IU

Question: And the “IU of Vitamin A Palmitate” value [3]?
Answer: 856 IU

Question: What about the “IU of Vitamin A Palmitate” value ([4]; 33 ppm stabilizer) of the same compound?
Answer: 878 IU

Question: What about the “IU of Vitamin A Palmitate” value ([4]; 66 ppm stabilizer) of the same compound?
Answer: 1215 IU

Question: With Vitamin A as the compound, how does the “remaining Vitamin A content” value [5] read?
Answer: approximately 1000 IU

Question: For `O=C(O)/C=C/c1ccc(O)c(O)c1` [caffeic acid], which “vitamin stabilization ability” value [1] is on record?
Answer: caffeic acid (2 hydroxyl groups)>ferulic acid>coumaric acid>cinnamic acid

Question: For `O=C(O)/C=C/c1ccc(O)cc1` [coumaric acid], which “vitamin stabilization ability” value [1] is on record?
Answer: caffeic acid (2 hydroxyl groups)>ferulic acid>coumaric acid>cinnamic acid

Question: With `COc1cc(/C=C/C(=O)O)ccc1O` [ferulic acid] as the compound, how does the “vitamin stabilization ability” value [1] read?
Answer: caffeic acid (2 hydroxyl groups)>ferulic acid>coumaric acid>cinnamic acid
